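How tested: cells in 96-well plates exposed to compound for 48 hours at five concentrations. TGI: total growth inhibition.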
Experiments:
Experiment in all cases: DTP human tumour cell line panel, 48 h
OVCAR-4 ovarian = system: OVCAR-4 ovarian
HT29 colon = system: HT29 colon
NCI-H522 lung = system: NCI-H522 lung
M14 melanoma = system: M14 melanoma
MALME-3M melanoma = system: MALME-3M melanoma
A549 NSCLC = system: A549 NSCLC
A498 renal = system: A498 renal
LOX IMVI melanoma = system: LOX IMVI melanoma
HL-60(TB) leukemia = system: HL-60(TB) leukemia
COLO 205 colon = system: COLO 205 colon
DLD-1 colon = system: DLD-1 colon
MOLT-4 leukemia = system: MOLT-4 leukemia
RPMI-8226 leukemia = system: RPMI-8226 leukemia
NCI-H226 lung = system: NCI-H226 lung
UO-31 renal = system: UO-31 renal
HOP-92 NSCLC = system: HOP-92 NSCLC
RXF 393 renal = system: RXF 393 renal
KM12 colon = system: KM12 colon
NCI-H23 lung = system: NCI-H23 lung
SNB-78 CNS = system: SNB-78 CNS
786-0 renal = system: 786-0 renal
XF 498 CNS = system: XF 498 CNS
CAKI-1 renal = system: CAKI-1 renal
DMS 114 small cell lung = system: DMS 114 small cell lung
ACHN renal = system: ACHN renal
SN12C renal = system: SN12C renal
SW-620 colon = system: SW-620 colon
HCT-15 colon = system: HCT-15 colon
U251 CNS = system: U251 CNS
DMS 273 small cell lung = system: DMS 273 small cell lung
CCRF-CEM leukemia = system: CCRF-CEM leukemia
HCT-116 colon = system: HCT-116 colon
NCI-H460 lung = system: NCI-H460 lung
SNB-75 CNS = system: SNB-75 CNS
OVCAR-5 ovarian = system: OVCAR-5 ovarian
SF-539 CNS = system: SF-539 CNS
OVCAR-3 ovarian = system: OVCAR-3 ovarian
OVCAR-8 ovarian = system: OVCAR-8 ovarian
UACC-257 melanoma = system: UACC-257 melanoma
HOP-62 NSCLC = system: HOP-62 NSCLC
SK-MEL-28 melanoma = system: SK-MEL-28 melanoma
SK-MEL-2 melanoma = system: SK-MEL-2 melanoma
UACC-62 melanoma = system: UACC-62 melanoma
HCC-2998 colon = system: HCC-2998 colon
KM20L2 colon = system: KM20L2 colon
SK-MEL-5 melanoma = system: SK-MEL-5 melanoma
K-562 leukemia = system: K-562 leukemia
SF-268 CNS = system: SF-268 CNS
SNB-19 CNS = system: SNB-19 CNS
LXFL 529 NSCLC = system: LXFL 529 NSCLC
SF-295 CNS = system: SF-295 CNS
RXF-631 renal = system: RXF-631 renal
M19-MEL melanoma = system: M19-MEL melanoma
TK-10 renal = system: TK-10 renal
SK-OV-3 ovarian = system: SK-OV-3 ovarian
HOP-18 NSCLC = system: HOP-18 NSCLC
EKVX NSCLC = system: EKVX NSCLC
IGROV1 ovarian = system: IGROV1 ovarian

Which TGI (OVCAR-4 ovarian) does the source give for O=C1c2c(n(Cc3ccccc3)c(=O)n2Cc2ccccc2)C(=O)N1Cc1ccccc1 here?
Its TGI is greater than 100 µM.

What about the TGI (HT29 colon) of the same compound?
The TGI was greater than 100 µM.

What about the TGI (NCI-H522 lung) of the same compound?
Its TGI is greater than 100 µM.

And the TGI (M14 melanoma)?
The TGI was greater than 100 µM.

What about the TGI (MALME-3M melanoma) of the same compound?
The TGI was greater than 100 µM.

And the TGI (A549 NSCLC)?
Its TGI is greater than 100 µM.

What about the TGI (A498 renal) of the same compound?
The TGI was greater than 100 µM.

What about the TGI (LOX IMVI melanoma) of the same compound?
The TGI was greater than 100 µM.

What about the TGI (HL-60(TB) leukemia) of the same compound?
The TGI was greater than 100 µM.

What about the TGI (COLO 205 colon) of the same compound?
Its TGI is greater than 100 µM.

And the TGI (DLD-1 colon)?
The TGI was greater than 100 µM.

What about the TGI (MOLT-4 leukemia) of the same compound?
Its TGI is greater than 100 µM.

What about the TGI (RPMI-8226 leukemia) of the same compound?
The TGI was greater than 100 µM.

And the TGI (NCI-H226 lung)?
The TGI was greater than 100 µM.

What about the TGI (UO-31 renal) of the same compound?
The TGI was greater than 100 µM.

And the TGI (HOP-92 NSCLC)?
The TGI was greater than 100 µM.

And the TGI (RXF 393 renal)?
Its TGI is greater than 100 µM.

What about the TGI (KM12 colon) of the same compound?
Its TGI is greater than 100 µM.

And the TGI (NCI-H23 lung)?
Its TGI is greater than 100 µM.

What about the TGI (SNB-78 CNS) of the same compound?
Its TGI is greater than 100 µM.

What about the TGI (786-0 renal) of the same compound?
The TGI was greater than 100 µM.

And the TGI (XF 498 CNS)?
Its TGI is 98.5 µM.

What about the TGI (CAKI-1 renal) of the same compound?
Its TGI is greater than 100 µM.

What about the TGI (DMS 114 small cell lung) of the same compound?
The TGI was greater than 100 µM.

And the TGI (ACHN renal)?
Its TGI is greater than 100 µM.

What about the TGI (SN12C renal) of the same compound?
Its TGI is greater than 100 µM.

What about the TGI (SW-620 colon) of the same compound?
The TGI was greater than 100 µM.

What about the TGI (HCT-15 colon) of the same compound?
The TGI was greater than 100 µM.

And the TGI (U251 CNS)?
The TGI was greater than 100 µM.

What about the TGI (DMS 273 small cell lung) of the same compound?
The TGI was greater than 100 µM.

And the TGI (CCRF-CEM leukemia)?
The TGI was greater than 100 µM.

And the TGI (HCT-116 colon)?
The TGI was greater than 100 µM.

And the TGI (NCI-H460 lung)?
Its TGI is greater than 100 µM.

And the TGI (SNB-75 CNS)?
Its TGI is greater than 100 µM.

What about the TGI (OVCAR-5 ovarian) of the same compound?
The TGI was greater than 100 µM.

What about the TGI (SF-539 CNS) of the same compound?
The TGI was greater than 100 µM.

And the TGI (OVCAR-3 ovarian)?
Its TGI is greater than 100 µM.

What about the TGI (OVCAR-8 ovarian) of the same compound?
The TGI was greater than 100 µM.

And the TGI (UACC-257 melanoma)?
Its TGI is greater than 100 µM.

And the TGI (HOP-62 NSCLC)?
The TGI was greater than 100 µM.

And the TGI (SK-MEL-28 melanoma)?
The TGI was greater than 100 µM.

What about the TGI (SK-MEL-2 melanoma) of the same compound?
Its TGI is greater than 100 µM.

What about the TGI (UACC-62 melanoma) of the same compound?
The TGI was greater than 100 µM.

And the TGI (HCC-2998 colon)?
The TGI was greater than 100 µM.

And the TGI (KM20L2 colon)?
Its TGI is greater than 100 µM.

And the TGI (SK-MEL-5 melanoma)?
The TGI was greater than 100 µM.

And the TGI (K-562 leukemia)?
The TGI was greater than 100 µM.

What about the TGI (SF-268 CNS) of the same compound?
The TGI was greater than 100 µM.

What about the TGI (SNB-19 CNS) of the same compound?
Its TGI is greater than 100 µM.

And the TGI (LXFL 529 NSCLC)?
Its TGI is greater than 100 µM.

And the TGI (SF-295 CNS)?
The TGI was greater than 100 µM.

What about the TGI (RXF-631 renal) of the same compound?
The TGI was greater than 100 µM.

What about the TGI (M19-MEL melanoma) of the same compound?
Its TGI is greater than 100 µM.

What about the TGI (TK-10 renal) of the same compound?
The TGI was greater than 100 µM.

And the TGI (SK-OV-3 ovarian)?
The TGI was greater than 100 µM.

What about the TGI (HOP-18 NSCLC) of the same compound?
The TGI was greater than 100 µM.

And the TGI (EKVX NSCLC)?
Its TGI is greater than 100 µM.

And the TGI (IGROV1 ovarian)?
The TGI was greater than 100 µM.

— PubChem BioAssay (NCI)
